Data published in patent US20120045393A1 (priority 2009, published 2012).

How the values were obtained:
[1] = system: EFO-27 human ovarian cancer cells (LHRH binding sites); assay: Direct binding/uptake of 177Lu-labeled LHRH-II analogs to EFO-27 cells; settings: 177Lu-labeled, 4° C., 1 h, single concentration
Method: All reagents and chemicals were obtained from Sigma unless otherwise specified. LHRH analogs and ^177Lu-LHRH-II analogs were prepared by in-house chemists, as described elsewhere in the application. ^177Lu-LHRH-II analogs were not HPLC purified, as they had been prepared using formulation conditions that yielded high RCP without the need for purification. […] The HPLC-purified material was taken in a stabilizing buffer containing 5% lactose, 0.1% L-cysteine hydrochloride and 800 KIU/mL aprotinin and received as a lyophilized product and stored at −70° C. This was reconstituted in distilled water, aliquoted and stored at −70° C. The radioactivity was determined using Microplate Scintillation counter (Wallac Microbeta Trilux).
For the binding assay, EFO-27 cells were seeded onto 96-well clear flat-bottom tissue-culture-treated plates at 15,000/well density in the growth medium and used for assay on day 2 post-seeding. Cells were routinely checked for confluence and contamination and cell count was done occasionally to ensure consistency in cell numbers.
Direct Binding: Direct binding studies were carried out by incubating appropriate ^177Lu-labeled compounds with EFO-27 cells at 4° C. for 1 h followed by washing off the unbound radioactivity. Non-specific binding was determined by incubating the ^177Lu-LHRH-II analogs in the presence of a large excess (30 uM) of cold (unlabeled) LHRH-II analogs. A 96-well plate format was used.

EFO-27 cells = assay: Internalization/efflux studies in EFO-27 cells; format: cell-based, human
Method in brief: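 EFO-27 cells incubated 40 min at 37° C with ^177Lu-LHRH II or ^125I-LHRH II ([^125I-Tyr^8]BRU-2477) at 3.0 μCi/mL, washed, then kept in fresh medium. At 0, 15, 30, 60 and 120 min radioactivity split into membrane-bound, internalized and efflux fractions.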

[2] = system: PC-3 (human prostate cancer) cells; assay: Internalization/efflux studies in PC-3 cells; format: cell-based
Method: Internalization/Efflux Studies: The internalization and efflux studies were carried out following the general procedure. Basically, ^177Lu-LHRH II or ^125I-LHRH II ([^125I-Tyr^8]BRU-2477) (75 uL, 3.0 μCi/mL) was added to the EFO-27 or PC-3 cells. The cells were incubated for 40 min at 37° C. The unbound radioactivity was washed off (4×). Following addition of fresh medium, the cells were further incubated for up to 2 h. At various time points (15, 30, 60 & 120 min) the distribution of radioactivity (membrane-bound, internalized, and efflux) was determined
To determine whether prostate cancer cells (PC-3) behave differently from EFO-27 cells, internalization and efflux studies were carried out with ^177Lu-BRU-2813 using both cell lines.

[3] = mouse, in vivo, 10 min
Method: In addition, at both 2 and 10 min post injection, blood samples from two mice were collected. The collected blood samples at each time point were pooled and treated with two times their volume with ice-cooled methanol, and then the mixture was centrifuged at 4° C. for 20 min at 20,000×g to precipitate proteins. The supernatant was collected and the organic solvent in the solution was removed by speed-vacuum for 60 min. The concentrated supernatant was assayed by HPLC.

in vitro = in vitro ADME, mouse
Method: Livers from 10 female Tac:NCr:Foxn1^nu/nu mice were excised, rinsed with ice cold PBS (no Ca^++ or Mg^++) and weighed. The tissues were minced with scissors in Petri dishes on ice with Tris buffered saline (Pierce BupH™ Tris buffered saline packs, #28376; 25 mM Tris, 150 mM NaCl, pH 7.2). After mincing, the tissues were dounce homogenized, and the total volume adjusted with ice cold Tris buffer (4 mL for every gram of excised tissue). The homogenate was centrifuged at ˜4000×g for 10 min at 4° C. The supernatants were aliquoted into Eppendorf tubes on ice (200 and 100 μl volumes) and stored at −80° C. Kidney homogenates were similarly prepared. […] The mixture was centrifuged at 4° C. for 20 min at 20,000×g to precipitate the protein; 10 μL (˜7.6 μCi) of the supernatant was injected into the HPLC for the analysis. […] Peaks at these retention times were also observed in the in vivo plasma sample (FIG. 1). […] The final concentration for the Lu-BRU-2813 in the homogenate sample solution was ˜0.4 mg/mL. After 60 min incubation, the sample was immediately cooled on ice, and then 0.48 mL of ice-cooled methanol was added. The sample was centrifuged at 4° C. for 20 min at 20,000×g to precipitate the protein. The supernatant was collected, concentrated using a speed vacuum to remove organic solvents, and then analyzed by LC/MS.

[4] = In vitro metabolic stability in mouse liver homogenate at 37° C.; format: in vitro ADME
Method: Livers from 10 female Tac:NCr:Foxn1^nu/nu mice were excised, rinsed with ice cold PBS (no Ca^++ or Mg^++) and weighed. The tissues were minced with scissors in Petri dishes on ice with Tris buffered saline (Pierce BupH™ Tris buffered saline packs, #28376; 25 mM Tris, 150 mM NaCl, pH 7.2). After mincing, the tissues were dounce homogenized, and the total volume adjusted with ice cold Tris buffer (4 mL for every gram of excised tissue). The homogenate was centrifuged at ˜4000×g for 10 min at 4° C. The supernatants were aliquoted into Eppendorf tubes on ice (200 and 100 μl volumes) and stored at −80° C. Kidney homogenates were similarly prepared. […] The mixture was centrifuged at 4° C. for 20 min at 20,000×g to precipitate the protein; 10 μL (˜7.6 μCi) of the supernatant was injected into the HPLC for the analysis. […] Peaks at these retention times were also observed in the in vivo plasma sample (FIG. 1). […] After 0 and 60 min, the sample was removed from the incubator, immediately cooled on ice and 2 μL of 10 mM EDTA and 0.2 mL of ice-cooled MeOH were added, mixing after each addition. The proteins in the sample were separated by centrifugation at 14,000 rpm for 20 min. The supernatant was harvested and, in the samples spiked with the ^177Lu-analog, the radioactivity was measured using a Capintec dose calibrator to determine recovery. The sample was then analyzed by HPLC. […] After 0 and 60 min, the sample was removed from the incubator, immediately cooled on ice and 2 μL of 10 mM EDTA and 0.24 mL of ice-cooled methanol was added, mixing after each addition. The proteins in the sample were separated by centrifugation at 14,000 rpm for 20 min. The supernatant was collected and analyzed by LC/MS as described earlier herein.

[5] = female, Tac:NCr:Foxn1nu/nu, mouse, tissue homogenate, pH 7.2

Q: For `N=C(N)NCCC[C@H](NC(=O)[C@@H](Cc1ccc2ccccc2c1)NC(=O)CN1CCN(CC(=O)O)CCN(CC(=O)O)CCN(CC(=O)O)CC1)C(=O)N[C@@H](Cc1c[nH]c2ccccc12)C(=O)N[C@@H](CO)C(=O)N[C@@H](Cc1cnc[nH]1)C(=O)N[C@H](CCCNC(=N)N)C(=O)N[C@@H](Cc1c[nH]c2ccccc12)C(=O)N[C@@H](Cc1ccc(C(=O)c2ccccc2)cc1)C(=O)N1CCC[C@H]1C(=O)NNC(N)=O` [177Lu-BRU-2813, Lu-DOTA-Dnal2-Arg-Trp-Ser-His-Darg-Trp-Bpa4-Pro-azaGly-NH2, metal not drawn], which “direct binding / uptake” value [1] is on record?
A: 19%

Q: And the “direct binding / uptake” value ([1]; listed as Lu-BRU-2813)?
A: 18.8%

Q: And the “cell surface (membrane) binding” value (EFO-27 cells; % of the total bound)?
A: 60-65%

Q: What about the initial internalization (EFO-27 cells; % of total bound (cell-associated) radioactivity, T=0) of the same molecule?
A: 27%

Q: What about the efflux (EFO-27 cells; in 1 h) of the same molecule?
A: 75-80%

Q: What about the initial internalization ([2]; % of cell-associated counts) of the same molecule?
A: 25%

Q: And the cell surface activity ([2]; % of the total bound)?
A: 60-65%

Q: What about the efflux ([2]; in 1 h) of the same molecule?
A: 75-80%

Q: What about the “radioactivity remaining in the plasma still in parent form” value [3] of the same molecule?
A: 66%

Q: And the “metabolism in kidney homogenate” value (in vitro)?
A: Extensive metabolism was seen

Q: And the remaining at 10 min, 2.3 mCi/mL (in vitro; female, Tac:NCr:Foxn1nu/nu, mouse, other tissue homogenate, pH 7.2)?
A: 2.4%

Q: What about the “metabolism in liver homogenate” value [4] of the same molecule?
A: Extensive metabolism was seen

Q: And the remaining at 10 min, 2.3 mCi/mL [4, 5]?
A: 18.3%

Q: And the remaining at 1 h, 0.3 mg/mL [4, 5]?
A: 12.4 ± 8.7%
